# Reference: publication PMC2749869, “Reversal of oncogene transformation and suppression of tumor growth by the novel IGF1R kinase inhibitor A-928605” (BMC Cancer, 2009)
# Entries after “also recorded” stand apart in the source; their conditions may differ.
# Tests used:
# NIH-3T3 CD8-IGF1R cells [1] = assay: Three day proliferation assay (MTS), NIH-3T3 CD8-IGF1R cells; type: cell-based
# Protocol: (§1) Cells grown in soft agar were plated at 5,000 cells/well in 12-well tissue culture plates in a top layer of 0.3% noble agar on a 0.7% bottom layer. Media containing the final desired concentration of small molecule inhibitor was used as the agar overlay. For proliferation assays, 5,000 cells per well were plated in 96-well tissue culture treated plates and allowed to attach overnight. The following day small molecule inhibitors or DMSO control were added in duplicate at the indicated concentrations and cells were placed in tissue culture incubators for 72 hours. Cell viability was determined by an MTS assay (CellTiter Aqueous One, Promega, Madison, WI).
# (§2) All cells were grown in normal growth media containing 10% FBS. B, Cells were treated for 1 hour with A-928605 in a dose response analysis as shown. The CD8-IGF1R fusion protein runs as a doublet. C and D, Three day proliferation assay in the NIH-3T3 vector control cells (C) or CD8-IGF1R cells (D) with increasing amounts of six clinical small molecule inhibitors and A-928605. Compounds were run in duplicate at each indicated concentration. Results are representative of 5 separate assays. Intended targets of each small molecule inhibitor are as follows: lapatinib, ERBB2 and EGFR; gefitinib, EGFR; dasatinib, ABL and SRC; Sorafinib, multi-targeted; imatinib, ABL and KIT; erlotinib, EGFR.
# NIH-3T3 CD8-IGF1R cells [2] = assay: Morphology of CD8-IGF1R cells (phase contrast imaging); type: cell-based; settings: increasing concentrations, imaging two days after addition
# Protocol: Supplementary file 1471-2407-9-314-S1.jpeg: Additional File 1 Supplementary Figure S1. Transformed morphology of the CD8-IGF1R cells. A, Phase contrast images of the NIH-3T3 vector control cells versus the NIH-3T3 CD8-IGF1R cells. B, Morphological dose response of the CD8-IGF1R line to A-928605 treatment. Cells were plated and allowed to adhere and proliferate overnight. The next day compound was added and imaging was performed two days later. The cellular morphology appears to revert back towards a naive 3T3 fibroblast at concentrations near or […] the IC50 of A-928605. All images were captured with a 20× objective. Click here for file
# IR = IR (Homo sapiens, UniProt P06213); assay: In vitro kinase panel (kinome profile), IR; type: biochemical
# Protocol: (§3) Figure 1 Chemical structure and activity of A-928605. A, The chemical name of A-928605 is 3-(2-(2-chlorobenzyl)-1 H-benzo [d]imidazol-5-yl)-1-((1 r, 4 r)-4-morpholinocyclohexyl)-1 H-pyrazolo [3,4-d]pyrimidin-4-amine. B, Kinome profile analysis of A-928605 on 156 unique kinases. Heat map colors correspond to the relative Ki against each kinase, where Ki greater than 1,000 nM are colored green, near 100 nM are yellow and Ki of roughly 10 nM are shaded red.
# NIH-3T3 CD8-IGF1R cells [3] = assay: DNA microarray analysis, CD8-IGF1R cells; type: cell-based; settings: 1 μM, 24 hours
# Protocol: Cells were treated with 1 μM of compound or DMSO control ([…] final concentration) and grown under normal conditions for 24 hours. Cells were then directly lysed in QIAzol RNA lysis reagent (Qiagen, Valencia, CA). Samples were homogenized using an Ultra Turrax T 25 homogenizer (IKA, Wilmington, SC) and then processed with the RNeasy 96 Universal Tissue 8000 kit (Qiagen, Valencia, CA) using a BioRobot 3000 liquid handler (Qiagen, Valencia, CA) and a Sigma 4K15C centrifuge (Sigma, Osterode am Harz, Germany) according to the Qiagen-prescribed protocol. […] GeneChip Operating Software (v1.4.036) was used to quantify perfect match and mismatch features on the scanned microarray images. After quantification, quality control was assured using the Affymetrix Power Tools Quality Reporter (v1.0.04) quality control metrics.
# Data normalization and analysis were performed using Resolver 7.0 software (Rosetta Inpharmatics, Seattle, WA). Ratios were built for the average of each treatment versus the group average and a p-value was calculated for every-fold change using the Resolver Affymetrix error model. […]
# [4] = test system: NIH-3T3 vector control cells; assay: Three day proliferation assay (MTS), NIH-3T3 vector control cells; type: cell-based; settings: 72 hours
# Protocol: as §1, §2
# CD8-IGF1R = molecular target: T1, CD8-IGF1R (Homo sapiens, UniProt P01732+P08069); assay: Western blot of IGF1R pathway phosphorylation and Cyclin D1 in NIH-3T3 CD8-IGF1R cells; type: cell-based, mouse; set-up: phosphorylation of the IGF1R cytotail, AKT and ERK1/2 / Cyclin D1 expression: dose or concentration left out as unconfirmed
# T1 construct: cytoplasmic domain of human IGF1R (amino acids 959-1368); expressed in transfected cells
# Protocol: NIH-3T3, SK-N-FI, MiaPaCa-2 and HCC827 cell lines were obtained from the American Type Culture Collection (ATCC, Manassas, VA). Cell lines were cultured and expanded in media according to ATCC guidelines. CD8-IGF1R was generated by an in-frame fusion of the extracellular and transmembrane domains of the human CD8α coding sequence (amino acids 1-207) followed by a BamHI restriction site to the cytoplasmic domain of human IGF1R (amino acids 959-1368). This product was cloned into the pIRESpuro3 vector (Clontech, Mountain View, CA) via AflII/NotI adaptors. NIH-3T3 CD8-IGF1R and vector control lines were generated by transfection of these constructs with FuGENE 6 (Roche Diagnostics, Basel, Switzerland) followed by selection with 2 μg/ml puromycin. Cells were dilution cloned and surviving colonies were screened for expression of the transgene. Cell clones positive for CD8-IGF1R expression and vector alone transfectants were pooled and remained under puromycin selection for the duration of the study.
# Antibodies used included rabbit anti-ERK1/2 pTpY185/187 (Biosource, Camarillo, CA), rabbit anti-IGF-1Rβ and rabbit anti-Cyclin D1 (Santa Cruz Biotechnology, Inc., Santa Cruz, CA), rabbit anti-phospho-IGF-1Rβ (Tyr1135/1136)/IR (Tyr1150/1151), rabbit antiphospho-AKT (S473), rabbit anti-AKT, rabbit anti-ERK1/2, (Cell Signaling Technology, Inc., Beverly, MA) and mouse anti-ACTIN (Sigma, St. Louis, MO). All cell lysate samples were lysed directly in 2× LDS NuPAGE sample buffer with reducing reagent (Invitrogen, Carlsbad, CA) and were analyzed for levels of phosphorylated and total signaling proteins by Western blotting using the NuPAGE electrophoresis and transfer systems (Invitrogen, Carlsbad, CA) and near infrared detection.
# All cells were grown in normal growth media containing 10% FBS. B, Cells were treated for 1 hour with A-928605 in a dose response analysis as shown. The CD8-IGF1R fusion protein runs as a doublet. […]
# HCC-827 flank tumors = assay: HCC-827 NSCLC xenograft flank model
# Protocol: All animal studies were conducted in accordance with the guidelines established by the internal Institutional Animal Care and Use Committees. For CD8 IGF1R flank tumors, 5.0 × 10^5 cells/mouse were mixed with an equal volume of Matrigel (BD Biosciences) and injected subcutaneously into the flank of 6- to 8-week-old female nu/nu mice (22 g; Charles River Laboratories). The tumors were allowed to grow approximately 225 mm^3, and mice were reassigned into treatment groups (N = 10) based on tumor volume. At the initiation of treatment, the mean tumor volume ± SEM of the groups was approximately 231 ± 10 mm^3. For MiaPaCa-2 flank tumors, 1.0 × 10^6 cells/mouse were mixed with an equal volume of Matrigel and injected subcutaneously into the flank of 6- to 8-week-old female SCID mice (20 g; Charles River Laboratories). The tumors were allowed to grow approximately 225 mm^3, and mice were reassigned into treatment groups (N = 10) based on tumor volume. At the initiation of treatment, the mean tumor volume ± SEM of the groups was approximately 210 ± 30 mm^3. […] The tumors were allowed to grow approximately 225 mm^3, and mice were reassigned into treatment groups (N = 10) based on tumor volume. At the initiation of treatment, the mean tumor volume ± SEM of the groups was approximately 300 ± 20 mm^3. In all flank models, tumor growth was periodically analyzed by measurement with digital calipers and tumor volume was estimated from the formula (L × W ^2)/2. For all flank models, the effect of treatment on tumor growth rate was assessed by determining %T/C [(mean tumor volume of treated group on day X ÷ mean tumor volume of control group on day X) × 100].
# Erlotinib was dosed orally at 3.1 mg/kg, b.i.d. for 16 days.
# IGF1R = IGF1R (Homo sapiens, UniProt P08069); assay: In vitro kinase panel (kinome profile), IGF1R; type: biochemical
# Protocol: as §3
# MiaPaCa-2 flank tumors = assay: MiaPaCa-2 pancreatic xenograft flank model; type: in vivo, mice; settings: A-928605 37.5 mg/kg i.p. b.i.d. 20 days; cetuximab 30 mg/kg i.p. 3×/week, 6 doses
# Protocol: All animal studies were conducted in accordance with the guidelines established by the internal Institutional Animal Care and Use Committees. For CD8 IGF1R flank tumors, 5.0 × 10^5 cells/mouse were mixed with an equal volume of Matrigel (BD Biosciences) and injected subcutaneously into the flank of 6- to 8-week-old female nu/nu mice (22 g; Charles River Laboratories). The tumors were allowed to grow approximately 225 mm^3, and mice were reassigned into treatment groups (N = 10) based on tumor volume. At the initiation of treatment, the mean tumor volume ± SEM of the groups was approximately 231 ± 10 mm^3. For MiaPaCa-2 flank tumors, 1.0 × 10^6 cells/mouse were mixed with an equal volume of Matrigel and injected subcutaneously into the flank of 6- to 8-week-old female SCID mice (20 g; Charles River Laboratories). The tumors were allowed to grow approximately 225 mm^3, and mice were reassigned into treatment groups (N = 10) based on tumor volume. […] In all flank models, tumor growth was periodically analyzed by measurement with digital calipers and tumor volume was estimated from the formula (L × W ^2)/2. For all flank models, the effect of treatment on tumor growth rate was assessed by determining %T/C [(mean tumor volume of treated group on day X ÷ mean tumor volume of control group on day X) × 100]. […]
# SK-N-FI cells = assay: SK-N-FI proliferation in vitro; type: cell-based, human; settings: SK-N-FI cell line
# Protocol: as §1
# IGF1R and IR = assay: IGF1R versus IR in vitro enzyme activity and cellular phosphorylation; settings: in vitro enzyme activity and cellular phosphorylation (data not shown)
# CD8 IGF1R flank tumors = assay: CD8-IGF1R xenograft flank model; type: in vivo, mice; settings: 50 mg/kg i.p. b.i.d. for 10 days, end of dosing (day 26)
# From the text: Figure 4 A-928605 abrogates modifications of IGF pathway signaling proteins in vitro and is efficacious in the CD8-IGF1R xenograft flank model in vivo. […] Cyclin D1 is a transcriptional target of the IGF signaling pathway and is therefore not affected by this one hour treatment.
# NIH-3T3 CD8-IGF1R cells [5] = assay: Soft agar anchorage-independent growth assay; type: cell-based; settings: 1 μM, three weeks
# Protocol: as §1
# Supplementary file 1471-2407-9-314-S2.jpeg: Additional File 2 Supplementary Figure S2. […] Cells were plated in soft agar with an overlay containing DMSO control (left) or a final concentration of 1 μM A-928605 (right). Cells were allowed to grow in a tissue culture incubator for three weeks before imaging. The 3T3 vector control line was not capable of anchorage-independent growth in soft agar (data not shown). Click here for file
# [6] = molecular target: T2, epidermal growth factor receptor (EGFR) (Homo sapiens, UniProt P00533); assay: Cellular EGFR phosphorylation in A-431 and HCC827 cells; type: cell-based; settings: A-431 cells; read-out: IC50 for inhibition of cellular EGFR phosphorylation
# T2 construct: endogenous in cells; host or cells: A-431 and HCC827 cells
# [7] = molecular target: T3, epidermal growth factor receptor (EGFR) (Homo sapiens, UniProt P00533, DEL746-750); assay: as above; type: cell-based; settings: HCC827 cells; read-out: IC50 for inhibition of cellular EGFR phosphorylation
# T3 construct: endogenous in cells; host or cells: A-431 and HCC827 cells
# [8] = test system: SK-N-FI renal subcapsule tumors; assay: SK-N-FI neuroblastoma renal subcapsule xenograft model; type: in vivo, mice; settings: 37.5 mg/kg i.p. b.i.d. for 14 days, end of dosing (day 28)
# Protocol: For SK-N-FI renal subcapsule tumors, mice were anesthetized with intramuscular injections of ketamine (40 mg/kg) and rompum (5 mg/kg) before surgery. […] The peritoneal cavity was closed with 4-0 suture and skin incision was closed with clip. Fourteen days after tumor cell injection, tumor growth was assessed in cohort mice by necropsy (see Figure 1B) and study mice were reassigned at that time to treatment groups (N = 10) based on injection order. At the end of the dosing period, tumor weight was determined by comparing the weight of the tumor bearing kidney to that of the contralateral kidney.
# Figure 5 Efficacy of A-928605 in the SK-N-FI neuroblastoma xenograft as a renal subcapsule model. A, A-928605 inhibits proliferation of SK-N-FI cells in vitro. […] B, Representative photograph taken of the tumor bearing and contralateral kidneys prior to the initiation of dosing on day 14 post tumor cell injection, indicating a tumor weight of 0.07 g. C, Representative photograph taken of the tumor bearing and contralateral kidneys at the end of the dosing schedule (day 28).
# T1 sequence (P01732+P08069 fused): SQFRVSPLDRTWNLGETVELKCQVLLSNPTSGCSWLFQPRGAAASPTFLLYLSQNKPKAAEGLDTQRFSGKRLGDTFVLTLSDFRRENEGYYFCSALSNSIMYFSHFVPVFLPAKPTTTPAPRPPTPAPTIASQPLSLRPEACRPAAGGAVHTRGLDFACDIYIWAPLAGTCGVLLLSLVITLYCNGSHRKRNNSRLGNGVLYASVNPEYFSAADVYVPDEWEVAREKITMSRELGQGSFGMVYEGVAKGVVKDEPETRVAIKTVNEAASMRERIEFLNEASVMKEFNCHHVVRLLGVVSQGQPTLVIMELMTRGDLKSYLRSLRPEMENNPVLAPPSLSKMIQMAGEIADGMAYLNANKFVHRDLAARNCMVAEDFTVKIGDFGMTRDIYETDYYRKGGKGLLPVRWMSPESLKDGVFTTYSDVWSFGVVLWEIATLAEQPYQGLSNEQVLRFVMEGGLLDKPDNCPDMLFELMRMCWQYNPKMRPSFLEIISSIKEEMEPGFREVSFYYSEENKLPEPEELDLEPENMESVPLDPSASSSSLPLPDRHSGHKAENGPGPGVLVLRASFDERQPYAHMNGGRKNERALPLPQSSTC
# T2 sequence (P00533 25-1210): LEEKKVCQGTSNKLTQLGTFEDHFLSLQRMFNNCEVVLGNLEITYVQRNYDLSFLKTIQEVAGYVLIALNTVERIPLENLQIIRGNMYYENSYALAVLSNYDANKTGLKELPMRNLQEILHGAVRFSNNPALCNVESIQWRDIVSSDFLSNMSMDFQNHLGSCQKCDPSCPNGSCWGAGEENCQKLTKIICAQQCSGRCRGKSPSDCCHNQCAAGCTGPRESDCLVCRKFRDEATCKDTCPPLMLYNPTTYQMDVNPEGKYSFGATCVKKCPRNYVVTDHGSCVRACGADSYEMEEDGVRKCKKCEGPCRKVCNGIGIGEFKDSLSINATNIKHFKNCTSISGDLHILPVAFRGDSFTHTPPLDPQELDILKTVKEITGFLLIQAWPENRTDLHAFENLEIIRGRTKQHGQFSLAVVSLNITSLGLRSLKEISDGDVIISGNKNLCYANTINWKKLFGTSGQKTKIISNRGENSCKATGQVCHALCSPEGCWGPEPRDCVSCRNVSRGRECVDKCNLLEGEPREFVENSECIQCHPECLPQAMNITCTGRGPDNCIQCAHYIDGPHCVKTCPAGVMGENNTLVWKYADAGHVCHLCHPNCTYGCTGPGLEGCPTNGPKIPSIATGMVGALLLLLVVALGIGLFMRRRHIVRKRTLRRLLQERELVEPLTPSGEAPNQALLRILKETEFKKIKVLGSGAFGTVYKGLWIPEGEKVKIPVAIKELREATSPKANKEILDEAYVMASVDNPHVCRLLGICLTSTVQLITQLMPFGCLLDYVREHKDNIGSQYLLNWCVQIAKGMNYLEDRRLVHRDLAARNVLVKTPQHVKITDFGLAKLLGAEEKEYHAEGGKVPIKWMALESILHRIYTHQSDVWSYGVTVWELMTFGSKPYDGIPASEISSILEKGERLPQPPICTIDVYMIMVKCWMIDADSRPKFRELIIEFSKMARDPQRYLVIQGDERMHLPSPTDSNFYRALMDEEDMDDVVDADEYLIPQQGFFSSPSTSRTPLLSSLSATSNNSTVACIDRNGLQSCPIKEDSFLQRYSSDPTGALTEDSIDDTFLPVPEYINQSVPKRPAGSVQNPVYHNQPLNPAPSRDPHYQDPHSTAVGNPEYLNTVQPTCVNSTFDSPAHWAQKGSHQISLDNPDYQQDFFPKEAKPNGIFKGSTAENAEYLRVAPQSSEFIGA
# IGF1R, sequence (P08069 31-1367, species assumed): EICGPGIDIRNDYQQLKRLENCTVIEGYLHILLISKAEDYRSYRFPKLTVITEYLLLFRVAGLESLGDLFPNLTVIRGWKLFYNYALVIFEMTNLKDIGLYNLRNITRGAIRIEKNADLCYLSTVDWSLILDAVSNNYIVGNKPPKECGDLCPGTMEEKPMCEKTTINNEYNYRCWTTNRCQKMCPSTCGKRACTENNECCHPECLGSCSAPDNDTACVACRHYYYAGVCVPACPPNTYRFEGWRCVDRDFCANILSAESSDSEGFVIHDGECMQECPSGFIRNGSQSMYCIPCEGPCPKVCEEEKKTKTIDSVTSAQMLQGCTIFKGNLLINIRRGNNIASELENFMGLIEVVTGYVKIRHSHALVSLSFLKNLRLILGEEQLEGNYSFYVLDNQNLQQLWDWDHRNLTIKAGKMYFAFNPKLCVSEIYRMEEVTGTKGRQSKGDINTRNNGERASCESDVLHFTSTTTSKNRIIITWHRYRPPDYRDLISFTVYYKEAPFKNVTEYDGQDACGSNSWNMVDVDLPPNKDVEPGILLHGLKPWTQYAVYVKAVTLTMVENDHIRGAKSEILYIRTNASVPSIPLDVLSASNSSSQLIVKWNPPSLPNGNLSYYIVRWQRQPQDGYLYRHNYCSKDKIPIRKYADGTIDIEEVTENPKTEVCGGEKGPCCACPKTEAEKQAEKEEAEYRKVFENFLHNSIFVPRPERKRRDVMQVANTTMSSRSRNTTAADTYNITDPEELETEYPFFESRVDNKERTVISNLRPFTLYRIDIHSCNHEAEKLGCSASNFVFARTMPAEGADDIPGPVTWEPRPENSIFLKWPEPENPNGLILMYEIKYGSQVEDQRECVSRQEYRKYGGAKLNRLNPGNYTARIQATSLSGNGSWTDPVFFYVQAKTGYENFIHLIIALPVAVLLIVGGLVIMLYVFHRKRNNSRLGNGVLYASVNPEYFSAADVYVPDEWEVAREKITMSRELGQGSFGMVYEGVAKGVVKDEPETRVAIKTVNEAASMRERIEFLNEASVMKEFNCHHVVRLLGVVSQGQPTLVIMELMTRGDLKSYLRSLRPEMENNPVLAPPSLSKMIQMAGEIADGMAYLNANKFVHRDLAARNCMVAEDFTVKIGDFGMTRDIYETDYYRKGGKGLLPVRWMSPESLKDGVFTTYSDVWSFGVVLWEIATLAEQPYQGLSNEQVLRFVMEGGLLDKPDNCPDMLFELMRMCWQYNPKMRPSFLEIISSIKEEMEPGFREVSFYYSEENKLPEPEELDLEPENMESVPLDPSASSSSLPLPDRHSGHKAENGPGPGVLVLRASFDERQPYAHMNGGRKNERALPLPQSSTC
# T3 sequence (P00533 with tags, fused parts or gaps DEL746-750): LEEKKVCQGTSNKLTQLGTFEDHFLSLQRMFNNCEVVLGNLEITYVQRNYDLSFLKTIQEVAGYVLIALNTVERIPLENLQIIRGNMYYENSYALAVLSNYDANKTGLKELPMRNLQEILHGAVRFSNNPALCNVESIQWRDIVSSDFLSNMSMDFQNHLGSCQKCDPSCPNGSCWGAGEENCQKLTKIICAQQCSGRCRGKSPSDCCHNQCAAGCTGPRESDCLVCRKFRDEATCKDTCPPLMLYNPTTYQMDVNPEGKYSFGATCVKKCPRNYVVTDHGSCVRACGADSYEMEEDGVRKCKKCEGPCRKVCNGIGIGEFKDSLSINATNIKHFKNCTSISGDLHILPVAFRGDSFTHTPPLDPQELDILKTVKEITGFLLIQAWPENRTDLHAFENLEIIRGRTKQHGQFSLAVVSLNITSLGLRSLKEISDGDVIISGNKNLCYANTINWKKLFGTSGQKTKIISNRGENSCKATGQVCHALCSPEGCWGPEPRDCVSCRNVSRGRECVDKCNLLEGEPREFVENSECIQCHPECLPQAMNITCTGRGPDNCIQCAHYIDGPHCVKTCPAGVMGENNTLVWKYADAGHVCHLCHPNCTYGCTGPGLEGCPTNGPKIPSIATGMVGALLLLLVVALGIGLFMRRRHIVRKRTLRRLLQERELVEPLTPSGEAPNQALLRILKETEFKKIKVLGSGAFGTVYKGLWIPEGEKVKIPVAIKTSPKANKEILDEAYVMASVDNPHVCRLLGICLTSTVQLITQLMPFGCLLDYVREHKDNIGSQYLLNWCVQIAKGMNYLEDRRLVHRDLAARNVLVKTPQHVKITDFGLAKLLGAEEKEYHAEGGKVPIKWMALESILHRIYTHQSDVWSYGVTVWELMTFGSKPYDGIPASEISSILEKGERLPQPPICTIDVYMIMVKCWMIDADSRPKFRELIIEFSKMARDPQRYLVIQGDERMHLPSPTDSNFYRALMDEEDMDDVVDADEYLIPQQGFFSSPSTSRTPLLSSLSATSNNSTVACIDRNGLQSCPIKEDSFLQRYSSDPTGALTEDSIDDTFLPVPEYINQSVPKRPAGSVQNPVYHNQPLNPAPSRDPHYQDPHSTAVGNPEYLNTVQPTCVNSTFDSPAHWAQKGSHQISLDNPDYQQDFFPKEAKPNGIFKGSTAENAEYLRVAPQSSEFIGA
structure (smiles),measurement,setting,value
"Nc1ncnc2c1c(-c1ccc3[nH]c(Cc4ccccc4Cl)nc3c1)nn2[C@H]1CC[C@H](N2CCOCC2)CC1 [A-928605, 3-(2-(2-chlorobenzyl)-1 H-benzo [d]imidazol-5-yl)-1-((1 r, 4 r)-4-morpholinocyclohexyl)-1 H-pyrazolo [3,4-d]pyrimidin-4-amine]",IC50,"NIH-3T3 CD8-IGF1R cells [1]; Mus musculus, NIH3T3, CD8-IGF1R cells, 72 hours, read-out: IC50, inhibition of cellular proliferation",< 300 nM
same,transformed phenotype (morphology),NIH-3T3 CD8-IGF1R cells [2],reversal of their transformed phenotype
same,Ki,IR,< 10 nM
same,decrease in Ccn d1 transcripts,NIH-3T3 CD8-IGF1R cells [3],4.8 fold
same,up-regulation of Cdkn1a (p21),NIH-3T3 CD8-IGF1R cells [3],1.5 fold
same,effect on cellular proliferation,[4],little effect
same,Cyclin D1 expression,CD8-IGF1R; 24-hours of treatment,significant decrease
same,IC50,"CD8-IGF1R; CD8-IGF1R cell line, 1 hour treatment, inhibition near known cellular IC50, read-out: cellular phosphorylation IC50 (dose-dependent inhibition of IGF1R phosphorylation)",~100 nM
same,"phosphorylation of the IGF1R cytotail, AKT and ERK1/2","CD8-IGF1R; one hour of treatment, CD8-IGF1R cells",inhibition of phosphorylation
same,tumor response in words,"HCC-827 flank tumors; size-matched HCC827 xenografts, 16 days dosing",not consistently statistically different from its vehicle control; also recorded: partial responses
same,Ki,IGF1R,< 10 nM
same,"%T/C, monotherapy compared to appropriate controls",MiaPaCa-2 flank tumors,approximately 80%
same,inhibition of proliferation in vitro,SK-N-FI cells,effectively inhibit proliferation
same,IC50s against IGF1R versus IR,IGF1R and IR,roughly equipotent
same,"%T/C (tumor volume, treated vs. vehicle)",CD8 IGF1R flank tumors,21%
same,inhibition of anchorage-independent growth in soft agar,NIH-3T3 CD8-IGF1R cells [5],completely inhibiting; also recorded: inhibits growth
same,IC50,[6],> 10000 nM
same,IC50,[7],> 10000 nM
same,"%T/C (tumor weight, treated vs. vehicle)",[8],58%
"Cc1nc(Nc2ncc(C(=O)Nc3c(C)cccc3Cl)s2)cc(N2CCN(CCO)CC2)n1 [Dasatinib, reference compound]",effect on cellular proliferation,"NIH-3T3 CD8-IGF1R cells [1]; CD8-IGF1R line, concentrations up to 10 μM",no effect
same,effect on cellular proliferation,[4],potent inhibitor
"C#Cc1cccc(Nc2ncnc3cc(OCCOC)c(OCCOC)cc23)c1 [erlotinib, reference compound]",tumor response in words,"HCC-827 flank tumors; mouse, in vivo",partial responses
